The values that follow are results of earlier work, collected in patent US6440438B2, “Covering impregnated with insecticide” (Protec Health International Limited, priority 1997, dated 2002).

Assay in series [1]: not given
The source holds these as a separate data set.

The conditions of series [2]: placed directly in contact with the skin.

`CC1(C)C(C=C(Cl)Cl)C1C(=O)OCc1cccc(Oc2ccccc2)c1` (stereo not shown) [Permethrin]: the solubility in water entry is “does not dissolve in water”. Moreover, the “period within which skin sensations (numbing, burning, tingling) usually subside” value in series [1] (contact with permethrin, reversible) is “twelve”. Further, the toxicity to humans entry in series [1] (in vivo) is listed as “not considered toxic”. Also, the “proportion of the chemical absorbed by the skin” value in series [2] is “about 0.5%”.
